These results are taken from patent publication US20130231305A1, “Method of Modulating Protein 14-3-3 Functionality By Facilitating or Inhibiting Phosphorylation” (Medvet Science Pty. Ltd., priority 2010, published 2013).

Residue numbers refer to the chain shown, from its start. Entries after “also recorded” stand apart in the source; their conditions may differ.

The test system of one data set is 14-3-3 isoforms. In words: Phosphorylation of recombinant 14-3-3 isoforms by PKA catalytic subunit. The note with it: 50 μM in 0.1% ethanol. The class given is biochemical. As for the experimental part:
FIG. 3 is an image depicting that sphingosine is required for the phosphorylation of multiple 14-3-3 isoforms in the third helix. (A) Primary sequence alignment of 14-3-3 isoforms in the third helix showing conservation of a Ser phosphorylation site (shown in bold). Asterisks indicate identical amino acids. (B) Recombinant 14-3-3 isoforms were incubated with PKA catalytic subunit in the presence of 50 μM sphingosine, dimethyl-sphingosine (DMS) or FTY 720 (FTY) delivered in 0.1% ethanol (EtOH). Phosphorylated 14-3-3s were detected by autoradiography. Gels were coomassie stained to show equal loading of 14-3-3 substrate.
(§1) Substrate 14-3-3 (either 0.5 μg of purified recombinant 14-3-3, a […] of fractions from gel filtration or immunoprecipitates from 14-3-3ζ-Myc transfected COS cells) were added to reaction mixture comprising 0.2 Units of the PKA catalytic subunit, in the presences or absence of sphingolipid (delivered in 0.1% v/v ethanol) in PICA reaction buffer (20 mM MOPS, pH 7.4, 20 mM β-glycerol phosphate, 4 mM EGTA, 1 mM Na3VO4, 60 mM MgCl2, 1 mM DTT, 500 μM ATP, 2.4 μCi [^32P]γ-ATP). Reactions were incubated at 37° C. for 15 minutes. After incubation, reactions were separated on 12.5% SDS-PAGE, coomassie stained and 14-3-3 phosphorylation analysed by autoradiography.

The target in data set [1] is T1, 14-3-3ζ (Homo sapiens, UniProt P63104).
T1 construct: made in house
T1 sequence (P63104 1-245): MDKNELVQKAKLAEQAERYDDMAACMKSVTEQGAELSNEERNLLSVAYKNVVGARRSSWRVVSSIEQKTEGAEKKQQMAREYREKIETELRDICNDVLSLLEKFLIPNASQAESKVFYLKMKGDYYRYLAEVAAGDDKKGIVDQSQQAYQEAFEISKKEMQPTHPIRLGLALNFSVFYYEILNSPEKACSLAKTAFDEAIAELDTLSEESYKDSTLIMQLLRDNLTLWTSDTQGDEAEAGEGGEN
As to the kind of experiment: 14-3-3 phosphorylation by PKA catalytic subunit (autoradiography). The class given is biochemical. Particulars: 50 μM lipid delivered in 0.1% ethanol. The protocol:
14-3-3ζ (wild-type or S58A mutant) was incubated with the catalytic subunit of PKA in the presence (+) or absence (−) of 50 μM sphingosine (A) or DMS (B) delivered in 0.1% ethanol. Phosphorylated 14-3-3ζ was detected by autoradiography.
The assay was carried out by incubating 14-3-g (0.5 μg) with catalytic subunit of PKA (0.2 Units) with the indicated concentration of DMS delivered in 0.1% ethanol. Reactions were separated on SDS-PAGE and phosphorylated protein detected by autoradiography. […] (B) 14-3-3ζ was incubated with the catalytic subunit of PKA and 50 μM D-erythro-sphingosine (Sph), D-erythro-trimethyl-sphingosine (TMS), D-erythro-dihydro-sphingosine (DHS), phyto-sphingosine (PSph), D-erythro-sphingosine-1-phosphate (SIP), C2-ceramide (C2-Cer), sphingomyelin (SM), spermine (Sper) or linoleic acid (LA), all delivered in 0.1% ethanol. Phosphorylated 14-3-3ζ was detected by autoradiography.
as §1

The target in data set [2] is T1, 14-3-3ζ. As to the kind of experiment: 14-3-3 phosphorylation by PKCδCat-HA immunoprecipitates. Particulars: recombinant 14-3-3ζ, FIG. 5B. The class given is biochemical. As for the experimental part: FIG. 5 is an image depicting that DMS is required for phosphorylation of 14-3-3ζ by PKCδCat but not for activation of the kinase. COS cells were transfected with either an empty expression construct (Mock) or one encoding a HA-tagged truncated form of PKCδ corresponding to the caspase-3 cleaved protein (PKCδCat-HA). 20 hours after transfection the cells were lysed and PKCδCat-HA was immunoprecipitated using an anti-HA antibody. (A) PKC assays were carried out on the immunoprecipitates from mock (open bars) and PKCδCat-HA (shaded bars) expressing cells using Ser25 peptide as substrate with [^32P]γ-ATP in the presence or absence of 100 μM DMS (delivered in 0.1% ethanol) or 10 μM of GF109203X (GFX), the PKC inhibitor. The values represent means±S.E. of triplicate determinations. (B) PKCδCat-HA immunoprecipitates were incubated with recombinant 14-3-3ζ and [^32P]γ-ATP in the presence or absence of DMS or GF109203X (GFX). Phosphorylated 14-3-3 was detected by autoradiography after separation of SDS-PAGE (upper panel). The gel was also coomassie stained to show equal loading of 14-3-3 protein (lower panel).
Equal amounts of PKCδCat-HA immunoprecipitate were used to assay for PKC kinase activity, or to phosphorylate recombinant 14-3-3. […] Following incubation, reactions were separated on 12.5% SDS-PAGE, coomassie stained and 14-3-3 phosphorylation analysed by autoradiography.

The next data set deals with T2, 14-3-3ζ S58A mutant (Homo sapiens, UniProt P63104, S58A).
T2 construct: made in house
T2 sequence (P63104 1-245 S58A): T1 sequence (P63104 1-245) with S58A
As to the kind of experiment: Phosphorylation of S58A mutant 14-3-3ζ by PKA catalytic subunit. Particulars: 50 μM sphingosine; alanine substitution of Ser58. The class given is biochemical. As for the experimental part:
FIG. 1 is an image depicting that sphingosine is required for 14-3-3ζ phosphorylation on Ser58 by the catalytic subunit of PKA. 14-3-3ζ (wild-type or S58A mutant) was incubated with the catalytic subunit of PKA in the presence (+) or absence (−) of 50 μM sphingosine (A) or DMS (B) delivered in 0.1% ethanol. Phosphorylated 14-3-3ζ was detected by autoradiography. Gels were coomassie stained to show equal loading of 14-3-3 substrate.
as §1

For data set [3] the following is noted: published, Contreras et al. 2006; cited from earlier work.
The target in data set [4] is T1, 14-3-3ζ. In words: Gel filtration of 14-3-3ζ with DMS and [3H]-sphingosine. In kind it is binding. The note with it: co-elution in fractions 3-14; 25 μM DMS with trace [3H]-sphingosine. As for the experimental part: FIG. 4 is a graphical representation depicting that sphingosine binds to 14-3-3 in vitro. 10 μg of recombinant 14-3-3 was incubated for 15 minutes at room temperature in 50 μl of buffer either in the absence (FIG. A, thick line) or presence of [^3H]-sphingosine (0.5 μCi) with 25 μM DMS (thin line). After incubation, the mixtures were separated by gel filtration as described under “examples”. (A) Absorbance at 280 nm was monitored continuously to identify the elution position of 14-3-3 protein. An aliquot of each eluted fraction was analysed for (B) sphingosine-binding to 14-3-3 by measuring [^3H]-sphingosine radioactivity as determined by scintillation counting; and (C) 14-3-3 phosphorylatability by incubation with 0.2 Units of PKA catalytic subunit and [^32P]γ-ATP. Phosphorylated 14-3-3 was detected by autoradiography. The chromatography and assays were repeated twice and similar results obtained.
Recombinant 14-3-3ζ (10 μg) was pre-incubated with 25 μM […] delivered in 0.1% v/v ethanol and [^3H]-sphingosine, (0.5 μCi) and then chromatographed on a SMART system with a Superdex 200PC 3.2/30 column (Amersham Biosciences, Australia). The system was operated at 40 μl/min using 20 mM Tris-HCl pH 7.5, 150 mM NaCl, 0.1 mM DTT, 10 mM β-mercaptoethanol as running buffer. Fractions (40 μl) were collected for 60 minutes after sample injection. […]
On the technique in general: SEC sorts molecules by how far they enter the pores of the column.

Consider `CCCCCCCCCCCCC/C=C/[C@@H](O)[C@@H](N)CO` [sphingosine, D-erythro-sphingosine], for which the “phosphorylation of 14-3-3 isoforms by PKA catalytic subunit” value in the data set on 14-3-3 isoforms is recorded as “all isoforms tested with the exception of 14-3-36 were phosphorylatable”. The “phosphorylation of 14-3-3ζ on Ser58 by PKA catalytic subunit” value on 14-3-3ζ [1] is “not phosphorylated by PKA catalytic subunit unless sphingosine was present; also recorded: allowed phosphorylation”. Also, at 14-3-3ζ [2], the “phosphorylation of 14-3-3 by PKCδCat” value was “no phosphorylation is observed with PKCδCat unless sphingosine is present”. The “sphingosine-dependent phosphorylation of S58A 14-3-3ζ” value on 14-3-3ζ S58A mutant was “abolished”. Also, the critical micelle concentration in data set [3] was 18 µM. In addition, on 14-3-3ζ [4], the “binding of [3H]-sphingosine to 14-3-3” value is “directly bound to 14-3-3”.
